Laboratory results from ChEMBL document CHEMBL5465560, “Selectivity Literature for EUbOPEN Chemogenomic Library” (2024).
Blank lines part the entries; values can stand above or below the compound they belong to.

How the values were obtained:
[1] = molecular target: T1, Serine/threonine-protein kinase PLK4 (Homo sapiens) (UniProt O00444); assay: Selectivity interaction (Kinase panel (DSF assay)) EUB0001489b PLK4
T1 sequence (whole entry): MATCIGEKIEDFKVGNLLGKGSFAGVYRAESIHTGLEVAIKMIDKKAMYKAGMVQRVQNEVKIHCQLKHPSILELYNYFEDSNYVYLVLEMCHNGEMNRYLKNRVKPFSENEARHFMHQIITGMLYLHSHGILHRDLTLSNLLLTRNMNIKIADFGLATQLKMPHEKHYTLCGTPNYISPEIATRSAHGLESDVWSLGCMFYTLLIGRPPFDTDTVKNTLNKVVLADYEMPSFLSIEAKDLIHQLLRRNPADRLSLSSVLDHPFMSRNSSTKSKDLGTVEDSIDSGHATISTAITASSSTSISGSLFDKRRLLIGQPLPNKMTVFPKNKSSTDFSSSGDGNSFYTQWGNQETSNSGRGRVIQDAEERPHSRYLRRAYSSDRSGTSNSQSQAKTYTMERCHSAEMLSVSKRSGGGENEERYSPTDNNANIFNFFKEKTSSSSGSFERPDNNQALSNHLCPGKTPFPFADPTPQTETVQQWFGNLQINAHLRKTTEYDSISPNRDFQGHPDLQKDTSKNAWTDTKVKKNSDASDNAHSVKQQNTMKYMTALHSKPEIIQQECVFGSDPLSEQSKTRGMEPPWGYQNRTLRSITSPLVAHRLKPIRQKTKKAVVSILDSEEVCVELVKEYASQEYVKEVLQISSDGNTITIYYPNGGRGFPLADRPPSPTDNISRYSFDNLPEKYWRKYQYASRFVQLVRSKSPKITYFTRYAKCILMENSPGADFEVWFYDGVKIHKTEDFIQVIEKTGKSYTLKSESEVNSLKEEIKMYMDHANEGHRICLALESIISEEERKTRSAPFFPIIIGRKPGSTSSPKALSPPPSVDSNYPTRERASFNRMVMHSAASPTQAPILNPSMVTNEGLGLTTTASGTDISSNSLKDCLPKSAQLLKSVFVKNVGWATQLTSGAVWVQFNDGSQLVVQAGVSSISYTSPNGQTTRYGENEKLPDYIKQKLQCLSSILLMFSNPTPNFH

[2] = Selectivity interaction (RapidFire MS assay (using full-length mouse protein MGAT2)) EUB0001079a MGAT2
[3] = molecular target: Ribosomal protein S6 kinase alpha-2 (Homo sapiens) (UniProt Q15349); assay: Selectivity interaction (KinomeScan (DiscoverX)) EUB0000618a RPS6KA2; conditions: at 10 µM
Ribosomal protein S6 kinase alpha-2 (Homo sapiens), sequence (Q15349 whole entry): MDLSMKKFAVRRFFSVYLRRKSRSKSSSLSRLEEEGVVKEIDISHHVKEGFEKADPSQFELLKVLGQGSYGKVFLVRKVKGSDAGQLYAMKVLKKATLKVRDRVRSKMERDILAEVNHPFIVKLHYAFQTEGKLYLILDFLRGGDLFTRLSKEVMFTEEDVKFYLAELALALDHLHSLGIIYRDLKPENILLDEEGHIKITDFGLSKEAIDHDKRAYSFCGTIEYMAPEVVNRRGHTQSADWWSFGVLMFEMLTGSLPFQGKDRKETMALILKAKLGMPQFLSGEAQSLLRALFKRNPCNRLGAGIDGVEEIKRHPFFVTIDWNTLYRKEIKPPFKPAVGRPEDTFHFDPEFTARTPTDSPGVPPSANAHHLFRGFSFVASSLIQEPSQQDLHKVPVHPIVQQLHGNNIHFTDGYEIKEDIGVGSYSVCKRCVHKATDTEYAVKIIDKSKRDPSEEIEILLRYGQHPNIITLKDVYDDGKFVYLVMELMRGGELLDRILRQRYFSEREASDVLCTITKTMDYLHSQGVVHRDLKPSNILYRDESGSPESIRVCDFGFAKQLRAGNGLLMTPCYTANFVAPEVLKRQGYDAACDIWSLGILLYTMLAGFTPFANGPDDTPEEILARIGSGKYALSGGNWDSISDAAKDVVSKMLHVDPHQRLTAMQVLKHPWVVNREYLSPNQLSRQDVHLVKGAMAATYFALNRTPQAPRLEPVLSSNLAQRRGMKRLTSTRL

[4] = molecular target: T2, Interleukin-1 receptor-associated kinase 4 (Homo sapiens) (UniProt Q9NWZ3); assay: Selectivity interaction (ActivX KiNativ screen (ex vivo kinase selectivity in human PBMCs)) EUB0001619a IRAK4; assay type: cell-based; conditions: PBMC, at 1 µM
T2 sequence (whole entry): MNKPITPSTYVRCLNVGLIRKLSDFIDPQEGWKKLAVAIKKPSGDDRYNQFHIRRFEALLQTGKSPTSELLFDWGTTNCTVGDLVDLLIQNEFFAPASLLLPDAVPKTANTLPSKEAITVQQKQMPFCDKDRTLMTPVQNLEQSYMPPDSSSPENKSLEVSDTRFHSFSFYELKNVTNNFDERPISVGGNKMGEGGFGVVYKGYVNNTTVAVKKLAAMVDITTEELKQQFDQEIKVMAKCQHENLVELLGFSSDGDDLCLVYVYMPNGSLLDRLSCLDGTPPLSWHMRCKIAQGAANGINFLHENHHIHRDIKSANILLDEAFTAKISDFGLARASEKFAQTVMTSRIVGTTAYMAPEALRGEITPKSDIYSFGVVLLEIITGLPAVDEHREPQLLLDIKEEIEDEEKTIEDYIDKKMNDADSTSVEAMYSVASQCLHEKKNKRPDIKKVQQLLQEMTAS

[5] = system: Tyrosine-protein kinase ABL1 (Homo sapiens), P00519 [H396P]; assay: (§1) Selectivity interaction (KinomeScan (DiscoverX)) EUB0000229b ABL1; conditions: at 1 µM
[6] = system: Tyrosine-protein kinase ABL1 (Homo sapiens), P00519 [E255K]; assay: as §1; conditions: at 1 µM
[7] = system: Tyrosine-protein kinase ABL1 (Homo sapiens), P00519 [F317L]; assay: as §1; conditions: at 1 µM
[8] = system: Tyrosine-protein kinase ABL1 (Homo sapiens), P00519 [F317I]; assay: as §1; conditions: at 1 µM
[9] = system: Tyrosine-protein kinase ABL1 (Homo sapiens), P00519 [Y253F]; assay: as §1; conditions: at 1 µM
[10] = system: Tyrosine-protein kinase ABL1 (Homo sapiens), P00519 [Q252H]; assay: as §1; conditions: at 1 µM
[11] = system: Tyrosine-protein kinase ABL1 (Homo sapiens), P00519 [M351T]; assay: as §1; conditions: at 1 µM
[12] = system: Tyrosine-protein kinase ABL1 (Homo sapiens), P00519 [T315I]; assay: as §1; conditions: at 1 µM
[13] = system: Fibroblast growth factor receptor 3 (Homo sapiens), P22607 [G697C]; assay: (§2) Selectivity interaction (KinomeScan (DiscoverX)) EUB0001049a FGFR3; conditions: at 1 µM
Fibroblast growth factor receptor 3 (Homo sapiens), P22607 [G697C], sequence (P22607 whole entry G697C): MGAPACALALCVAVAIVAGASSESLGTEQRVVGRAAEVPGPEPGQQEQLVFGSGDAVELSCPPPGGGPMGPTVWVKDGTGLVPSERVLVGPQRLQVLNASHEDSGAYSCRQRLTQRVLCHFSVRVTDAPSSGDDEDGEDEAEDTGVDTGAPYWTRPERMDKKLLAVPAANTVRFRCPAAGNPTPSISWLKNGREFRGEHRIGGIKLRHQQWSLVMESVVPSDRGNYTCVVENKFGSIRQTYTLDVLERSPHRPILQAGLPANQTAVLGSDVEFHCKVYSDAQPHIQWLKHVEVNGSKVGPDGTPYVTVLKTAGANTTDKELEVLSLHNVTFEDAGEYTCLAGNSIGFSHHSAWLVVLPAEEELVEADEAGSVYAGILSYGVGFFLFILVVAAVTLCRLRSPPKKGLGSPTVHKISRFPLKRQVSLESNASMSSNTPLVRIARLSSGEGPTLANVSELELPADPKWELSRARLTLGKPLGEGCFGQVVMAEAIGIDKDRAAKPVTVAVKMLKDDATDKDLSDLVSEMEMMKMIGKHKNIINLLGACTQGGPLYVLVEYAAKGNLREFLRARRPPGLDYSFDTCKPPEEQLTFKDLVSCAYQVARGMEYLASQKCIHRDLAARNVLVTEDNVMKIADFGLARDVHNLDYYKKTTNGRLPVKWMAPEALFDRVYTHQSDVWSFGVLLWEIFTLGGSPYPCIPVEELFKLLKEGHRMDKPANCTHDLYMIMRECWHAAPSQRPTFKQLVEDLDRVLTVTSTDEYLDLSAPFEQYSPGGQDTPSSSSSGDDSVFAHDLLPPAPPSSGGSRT

[14] = molecular target: Fibroblast growth factor receptor 3 (Homo sapiens, UniProt P22607); assay: as §2; conditions: at 1 µM
Fibroblast growth factor receptor 3, sequence (P22607 23-806 limits assumed): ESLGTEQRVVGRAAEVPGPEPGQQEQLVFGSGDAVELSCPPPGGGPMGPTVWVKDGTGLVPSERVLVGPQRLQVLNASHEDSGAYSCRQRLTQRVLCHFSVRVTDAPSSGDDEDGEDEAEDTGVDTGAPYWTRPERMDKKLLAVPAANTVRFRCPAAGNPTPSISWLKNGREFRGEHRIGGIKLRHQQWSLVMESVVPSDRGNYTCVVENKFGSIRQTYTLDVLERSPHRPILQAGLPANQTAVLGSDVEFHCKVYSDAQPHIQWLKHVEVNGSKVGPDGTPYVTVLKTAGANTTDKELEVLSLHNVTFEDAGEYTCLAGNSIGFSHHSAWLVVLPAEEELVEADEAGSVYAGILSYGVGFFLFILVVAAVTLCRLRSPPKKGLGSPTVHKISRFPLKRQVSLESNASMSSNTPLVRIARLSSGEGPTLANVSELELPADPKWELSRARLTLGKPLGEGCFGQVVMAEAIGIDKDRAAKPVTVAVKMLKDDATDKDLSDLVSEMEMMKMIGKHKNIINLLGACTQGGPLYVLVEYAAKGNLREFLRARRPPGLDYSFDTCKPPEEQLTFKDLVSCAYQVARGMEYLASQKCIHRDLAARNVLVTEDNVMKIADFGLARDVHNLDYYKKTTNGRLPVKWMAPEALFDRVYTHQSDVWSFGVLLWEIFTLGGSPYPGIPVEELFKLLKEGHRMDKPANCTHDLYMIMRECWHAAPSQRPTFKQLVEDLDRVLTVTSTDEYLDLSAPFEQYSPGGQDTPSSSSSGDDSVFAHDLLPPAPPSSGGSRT

[15] = molecular target: T3, Cyclin-dependent kinase 11A (Homo sapiens) (UniProt Q9UQ88); assay: Selectivity interaction (KinomeScan (DiscoverX)) EUB0000092b CDK11A; conditions: at 10 µM
T3 sequence (whole entry): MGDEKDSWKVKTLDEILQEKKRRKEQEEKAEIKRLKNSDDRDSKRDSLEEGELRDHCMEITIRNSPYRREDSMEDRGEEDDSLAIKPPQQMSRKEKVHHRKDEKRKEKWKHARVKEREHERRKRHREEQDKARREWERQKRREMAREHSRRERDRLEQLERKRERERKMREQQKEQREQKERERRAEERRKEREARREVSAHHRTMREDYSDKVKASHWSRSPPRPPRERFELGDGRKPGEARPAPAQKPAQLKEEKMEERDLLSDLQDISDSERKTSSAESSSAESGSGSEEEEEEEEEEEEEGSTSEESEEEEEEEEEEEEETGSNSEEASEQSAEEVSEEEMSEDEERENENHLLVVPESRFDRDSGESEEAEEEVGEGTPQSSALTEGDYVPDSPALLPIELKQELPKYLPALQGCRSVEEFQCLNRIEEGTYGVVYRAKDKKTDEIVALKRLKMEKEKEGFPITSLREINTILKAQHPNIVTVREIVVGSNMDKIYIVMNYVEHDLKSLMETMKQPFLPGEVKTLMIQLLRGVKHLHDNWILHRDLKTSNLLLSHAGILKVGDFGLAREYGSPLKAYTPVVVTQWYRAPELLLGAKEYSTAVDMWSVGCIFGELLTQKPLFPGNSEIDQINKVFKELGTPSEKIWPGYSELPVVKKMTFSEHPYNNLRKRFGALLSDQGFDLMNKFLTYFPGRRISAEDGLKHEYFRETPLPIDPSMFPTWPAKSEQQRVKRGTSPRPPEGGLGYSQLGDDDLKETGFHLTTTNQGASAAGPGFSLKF

[16] = molecular target: Serine/threonine-protein kinase PAK 6 (Homo sapiens) (UniProt Q9NQU5); assay: Selectivity interaction (KinomeScan (DiscoverX)) EUB0000695a PAK6; conditions: at 100 nM
Serine/threonine-protein kinase PAK 6 (Homo sapiens), sequence (Q9NQU5 whole entry, looked up): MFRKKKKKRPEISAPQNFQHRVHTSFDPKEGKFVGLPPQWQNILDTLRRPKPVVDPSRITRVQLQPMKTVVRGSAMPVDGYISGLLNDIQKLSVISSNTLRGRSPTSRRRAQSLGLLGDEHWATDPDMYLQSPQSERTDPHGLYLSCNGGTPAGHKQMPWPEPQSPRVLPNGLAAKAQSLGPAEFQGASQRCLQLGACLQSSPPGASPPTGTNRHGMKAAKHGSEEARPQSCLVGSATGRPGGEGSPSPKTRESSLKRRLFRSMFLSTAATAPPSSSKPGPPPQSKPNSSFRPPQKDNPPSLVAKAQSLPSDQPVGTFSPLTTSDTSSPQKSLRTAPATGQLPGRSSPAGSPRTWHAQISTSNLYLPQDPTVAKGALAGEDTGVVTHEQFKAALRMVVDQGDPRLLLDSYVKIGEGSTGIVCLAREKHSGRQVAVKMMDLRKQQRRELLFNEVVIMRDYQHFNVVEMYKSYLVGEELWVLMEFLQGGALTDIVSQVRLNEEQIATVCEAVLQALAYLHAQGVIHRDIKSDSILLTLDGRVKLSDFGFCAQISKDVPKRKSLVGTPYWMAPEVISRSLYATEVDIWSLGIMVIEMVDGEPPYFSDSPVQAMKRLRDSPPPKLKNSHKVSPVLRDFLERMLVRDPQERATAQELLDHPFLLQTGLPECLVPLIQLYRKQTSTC

- dTM [1]: 4 K
SMILES: CN1CCN(C(=O)c2ccc3cc2OCCOCCNc2ccn4ncc-3c4n2)CC1

SMILES: Nc1cnc(N2CCc3cc(S(=O)(=O)Nc4c(F)cc(Cl)cc4F)cc(N4CCCC4=O)c32)nc1 [TP-020n]
- IC50 [2]: 530 nM

SMILES: O[C@H]1CC[C@H](Nc2ncc3nc(Nc4c(F)cc(F)cc4F)n([C@H]4CCOC4)c3n2)CC1
- % of control [3]: 91%

SMILES: N#Cc1cccc(-c2c[nH]c3ncnc(N4CCOCC4)c23)c1
- % of inhibition [4]: 11%

SMILES: COc1cc(N(C)c2ccnc3ccc(C(F)(F)F)cc23)cc(OC)c1OC
- % binding [5]: 41%
- % binding [6]: 90%
- % binding [7]: 83%
- % binding [8]: 93%
- % binding [9]: 69%
- % binding [10]: 44%
- % binding [11]: 92%
- % binding [12]: 81%

SMILES: COc1cc(Nc2nc(C)cc(-c3cnn4nc(OC)ccc34)n2)cc(C(F)(F)F)c1
- % of control [13]: 96%
- % of control [14]: 96%

SMILES: CCC(=O)N1CCN(c2ccc(-n3c(=O)ccc4cnc5ccc(-c6cnc7ccccc7c6)cc5c43)cc2C(F)(F)F)CC1
- % of control [15]: 100%

SMILES: Cc1cc(F)c(C(=O)Nc2cccc(-c3nncn3C(C)C)n2)cc1-n1cnc(C2CC2)c1
- % of control [16]: 97%
